The source of these data is ChEMBL document CHEMBL4020759, “Sulfoximines as ATR inhibitors: Analogs of VE-821” (2017).

The structures appear in SMILES notation.

In one assay the test system is OVCAR-3. Briefly: Growth inhibition of human OVCAR3 cells assessed as cell growth at 10 uM incubated for 48 hrs by sulforhodamine B assay. It is filed as functional. To be noted: OVCAR-3, 48 h, read-out: Activity.
Assay [1] has as its target Serine/threonine-protein kinase ATR (Homo sapiens) (UniProt Q13535). Kind of assay: Inhibition of ATR in human U2OS cells assessed as reduction in hydroxyurea-induced Chk-1 phosphorylation at Ser345 residue by measuring ratio of GAPDH level to phosphorylated Chk-1 level at 3 uM preincubated for 1 hr followed by hydroxyurea challenge measured after 2 hrs by Western blot analysis. It is filed as cell-based.

Sequence of Serine/threonine-protein kinase ATR (Homo sapiens) (Q13535 whole entry, looked up): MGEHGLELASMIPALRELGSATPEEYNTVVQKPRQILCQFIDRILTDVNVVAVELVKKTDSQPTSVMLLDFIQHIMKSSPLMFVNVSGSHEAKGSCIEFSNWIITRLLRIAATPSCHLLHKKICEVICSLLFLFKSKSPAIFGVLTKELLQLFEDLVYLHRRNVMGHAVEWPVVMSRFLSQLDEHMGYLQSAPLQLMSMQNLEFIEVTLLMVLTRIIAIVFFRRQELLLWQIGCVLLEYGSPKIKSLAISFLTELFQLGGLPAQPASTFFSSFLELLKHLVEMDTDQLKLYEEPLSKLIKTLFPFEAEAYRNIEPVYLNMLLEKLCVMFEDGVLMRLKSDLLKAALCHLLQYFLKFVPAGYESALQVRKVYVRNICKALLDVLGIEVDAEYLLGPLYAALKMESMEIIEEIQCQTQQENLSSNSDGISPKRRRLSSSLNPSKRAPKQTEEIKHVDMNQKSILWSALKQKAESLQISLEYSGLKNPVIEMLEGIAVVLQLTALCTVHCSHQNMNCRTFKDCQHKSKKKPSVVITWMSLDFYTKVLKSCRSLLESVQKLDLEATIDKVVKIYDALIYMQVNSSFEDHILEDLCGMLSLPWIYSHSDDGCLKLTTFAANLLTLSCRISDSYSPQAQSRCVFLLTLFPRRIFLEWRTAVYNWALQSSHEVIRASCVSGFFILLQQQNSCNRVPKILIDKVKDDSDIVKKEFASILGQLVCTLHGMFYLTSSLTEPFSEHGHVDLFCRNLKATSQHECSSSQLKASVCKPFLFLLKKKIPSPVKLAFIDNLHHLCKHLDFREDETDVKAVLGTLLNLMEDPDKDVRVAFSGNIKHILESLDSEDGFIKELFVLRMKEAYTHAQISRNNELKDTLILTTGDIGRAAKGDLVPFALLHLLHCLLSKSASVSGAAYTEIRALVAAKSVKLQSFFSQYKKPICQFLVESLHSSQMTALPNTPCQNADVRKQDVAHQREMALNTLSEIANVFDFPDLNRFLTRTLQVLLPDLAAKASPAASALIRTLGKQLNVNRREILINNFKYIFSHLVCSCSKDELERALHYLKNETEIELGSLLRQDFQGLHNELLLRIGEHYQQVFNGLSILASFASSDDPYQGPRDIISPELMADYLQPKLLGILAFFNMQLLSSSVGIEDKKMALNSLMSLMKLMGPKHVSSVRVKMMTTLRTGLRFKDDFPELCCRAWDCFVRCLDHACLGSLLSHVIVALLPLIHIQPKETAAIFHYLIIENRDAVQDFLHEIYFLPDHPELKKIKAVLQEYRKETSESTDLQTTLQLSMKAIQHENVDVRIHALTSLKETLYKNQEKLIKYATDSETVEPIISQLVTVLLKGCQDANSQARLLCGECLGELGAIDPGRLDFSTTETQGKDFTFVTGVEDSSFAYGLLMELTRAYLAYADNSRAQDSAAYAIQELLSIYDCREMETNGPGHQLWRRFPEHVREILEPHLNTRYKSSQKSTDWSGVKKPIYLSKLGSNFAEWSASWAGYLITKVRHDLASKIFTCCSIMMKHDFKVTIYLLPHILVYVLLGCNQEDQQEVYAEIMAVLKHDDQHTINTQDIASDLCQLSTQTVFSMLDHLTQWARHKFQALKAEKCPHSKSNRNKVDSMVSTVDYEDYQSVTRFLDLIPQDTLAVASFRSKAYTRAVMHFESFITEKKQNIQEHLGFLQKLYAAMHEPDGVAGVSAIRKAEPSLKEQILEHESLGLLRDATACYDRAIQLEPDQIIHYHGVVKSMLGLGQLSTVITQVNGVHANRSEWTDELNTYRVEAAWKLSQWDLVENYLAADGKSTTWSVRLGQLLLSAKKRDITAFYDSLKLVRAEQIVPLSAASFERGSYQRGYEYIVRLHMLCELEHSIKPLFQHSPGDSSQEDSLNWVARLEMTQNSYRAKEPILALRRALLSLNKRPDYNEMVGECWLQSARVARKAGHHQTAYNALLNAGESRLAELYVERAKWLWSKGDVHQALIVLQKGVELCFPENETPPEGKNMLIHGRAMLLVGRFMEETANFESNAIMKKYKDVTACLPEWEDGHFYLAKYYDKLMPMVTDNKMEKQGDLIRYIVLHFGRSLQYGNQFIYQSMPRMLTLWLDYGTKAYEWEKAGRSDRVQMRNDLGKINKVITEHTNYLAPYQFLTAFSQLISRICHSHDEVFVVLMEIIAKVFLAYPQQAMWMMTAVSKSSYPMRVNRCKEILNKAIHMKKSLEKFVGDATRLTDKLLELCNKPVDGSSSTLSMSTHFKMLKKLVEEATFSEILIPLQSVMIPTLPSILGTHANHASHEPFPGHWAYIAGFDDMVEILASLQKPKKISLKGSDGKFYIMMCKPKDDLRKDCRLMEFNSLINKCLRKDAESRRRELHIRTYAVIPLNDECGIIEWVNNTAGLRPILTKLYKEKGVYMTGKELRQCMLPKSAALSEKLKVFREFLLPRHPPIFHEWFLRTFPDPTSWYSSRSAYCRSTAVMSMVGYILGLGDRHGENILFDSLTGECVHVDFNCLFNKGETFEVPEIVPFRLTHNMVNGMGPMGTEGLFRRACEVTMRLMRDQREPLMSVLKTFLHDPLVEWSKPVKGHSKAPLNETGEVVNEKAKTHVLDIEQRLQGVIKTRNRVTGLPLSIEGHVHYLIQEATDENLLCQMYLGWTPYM

With `CS(=O)(=NC#N)c1ccc(-c2cnc(N)c(C(=O)Nc3ccccc3)n2)cc1` (centres undefined), the growth at 10 µM with OVCAR-3 was found to be 89.4%. Besides, the Ratio in assay [1] worked out at 58.1.

As to `C/S(=N\C#N)c1ccc(-c2cnc(N)c(C(=O)Nc3ccccc3)n2)cc1` (centres undefined), in the assay with OVCAR-3, the growth at 10 µM amounted to 83.4%. In assay [1], the Ratio turned out to be 40.1.
